This note sets out measurements from PubChem BioAssay (NCI).

Among the test systems are HCT-15 colon; UACC-62 melanoma; SW-620 colon; MALME-3M melanoma; U251 CNS; IGROV1 ovarian; OVCAR-5 ovarian; ACHN renal; HL-60(TB) leukemia; A549 NSCLC.
Holding throughout (test): NCI-60 cell line screen, 48 h

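Dose response: 5 concentrations. Exposure: 48 h. Format: 96-well plates. Endpoint: linear interpolation; highest concentration if not reached. GI50 is the concentration that inhibits growth by half. TGI marks complete inhibition of growth.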 Where only a bound is given, the exact number is not on record here.

As to `COc1cc(C2C3=C(COC3=O)N(CCO)c3cc4c(cc32)CCC4)cc(OC)c1OC` (centres undefined), the GI50 was 0.199 µM in the assay with HCT-15 colon; 0.0749 µM with UACC-62 melanoma; 0.126 µM in the assay on SW-620 colon; 0.598 µM in the assay on MALME-3M melanoma; 0.125 µM with U251 CNS; 0.0732 µM in the assay on IGROV1 ovarian. The GI50 with OVCAR-5 ovarian is 0.164 µM; in the assay on ACHN renal it was 0.229 µM; with HL-60(TB) leukemia it was 0.0842 µM; with A549 NSCLC it was 0.13 µM. The TGI was more than 32.5 µM in the assay with HCT-15 colon; more than 32.5 µM in the assay with UACC-62 melanoma; more than 32.5 µM in the assay on SW-620 colon; more than 32.5 µM with MALME-3M melanoma; more than 32.5 µM in the assay on U251 CNS; 0.232 µM with IGROV1 ovarian. The TGI in the assay with OVCAR-5 ovarian, in the assay on ACHN renal and in the assay with A549 NSCLC was more than 32.5 µM each time.
Regarding `CCOC(=O)C(Cc1ccc(N(CCCl)CCCl)cc1)NC(=O)C(CC(C)C)NC(C)=O` (centres undefined), the GI50 with HCT-15 colon was 2.22 µM; in the assay on UACC-62 melanoma it was 0.659 µM; in the assay with SW-620 colon, 1.08 µM; in the assay on MALME-3M melanoma, 0.873 µM; in the assay on U251 CNS, 1.39 µM; in the assay with IGROV1 ovarian, 1.52 µM. The GI50 with OVCAR-5 ovarian was 3.18 µM; in the assay with ACHN renal, 0.173 µM; in the assay on HL-60(TB) leukemia, 0.304 µM; in the assay on A549 NSCLC, 1.73 µM. The TGI in the assay on HCT-15 colon is more than 27.8 µM; with UACC-62 melanoma, 2.19 µM; in the assay on SW-620 colon, 6.03 µM; with MALME-3M melanoma it was 2.74 µM; with U251 CNS, 8.13 µM; in the assay with IGROV1 ovarian it was 4.72 µM. Besides, the TGI with OVCAR-5 ovarian came out at 12 µM; in the assay on ACHN renal, 1.42 µM; in the assay with HL-60(TB) leukemia it was 1.9 µM; in the assay with A549 NSCLC it was 25.6 µM.
With `O=C(CN1C(=O)c2ccccc2C1=O)NC1(C(=O)O)CCCC1`, the TGI in the assay with HCT-15 colon, in the assay on UACC-62 melanoma, in the assay with SW-620 colon, in the assay with MALME-3M melanoma, in the assay with U251 CNS and in the assay on IGROV1 ovarian was more than 100 µM throughout. The TGI in the assay on OVCAR-5 ovarian, in the assay with ACHN renal, with HL-60(TB) leukemia and in the assay on A549 NSCLC was more than 100 µM each time.
With `Cc1ccc(S(=O)(=O)c2ccccn2)cc1`, the TGI with HCT-15 colon, in the assay on UACC-62 melanoma, in the assay on SW-620 colon, in the assay with MALME-3M melanoma, with U251 CNS and in the assay with IGROV1 ovarian was more than 100 µM each time. In addition, the TGI with OVCAR-5 ovarian was 97.2 µM; with ACHN renal, more than 100 µM; with HL-60(TB) leukemia, more than 100 µM; with A549 NSCLC it was more than 100 µM.
On to `Oc1ccc(-c2nc(-c3ccc4oc5ccc(-c6[nH]c(-c7ccc(O)cc7)nc6-c6ccccc6)cc5c4c3)c(-c3ccccc3)[nH]2)cc1`, for which the GI50 in the assay on HCT-15 colon was 3.68 µM; in the assay with UACC-62 melanoma, 14.7 µM; with SW-620 colon, 2.95 µM; with MALME-3M melanoma, 9.07 µM; in the assay with U251 CNS it was 2.93 µM; with IGROV1 ovarian, 4.54 µM. Moreover, the GI50 in the assay with OVCAR-5 ovarian was 12.1 µM; in the assay on ACHN renal, 5.2 µM; in the assay with HL-60(TB) leukemia it was 2.79 µM; with A549 NSCLC, 4.26 µM. In addition, the TGI in the assay on HCT-15 colon was found to be 29.1 µM; in the assay on UACC-62 melanoma, 46.8 µM; with SW-620 colon it was 10.7 µM; in the assay on MALME-3M melanoma, 68 µM; with U251 CNS, 15 µM; in the assay on IGROV1 ovarian it was 96.6 µM. Further, the TGI in the assay with OVCAR-5 ovarian was 25.4 µM; in the assay with ACHN renal it was 20.3 µM; with HL-60(TB) leukemia it was 8.09 µM; in the assay with A549 NSCLC, 25.5 µM.
Turning to `CC[N+]1(C)CCC(O)(/C=C/c2ccccc2)C(C(=O)/C=C/c2ccccc2)C1` (centres undefined), the TGI in the assay on HCT-15 colon is 15.5 µM; with UACC-62 melanoma, 33.4 µM; in the assay with SW-620 colon, 6.45 µM; with MALME-3M melanoma it was 26.9 µM; with U251 CNS, 22.5 µM; in the assay with IGROV1 ovarian, 37.9 µM. The TGI in the assay on OVCAR-5 ovarian is 36.1 µM; in the assay with ACHN renal, 25.4 µM; with HL-60(TB) leukemia, 8.48 µM; with A549 NSCLC it was 45.7 µM.
`Cc1nc2c(=O)n(C)c(=O)nc-2n(-c2ccc(Cl)cc2)c1C`: the TGI in the assay with HCT-15 colon, in the assay with UACC-62 melanoma, in the assay with SW-620 colon, in the assay with MALME-3M melanoma, in the assay on U251 CNS and in the assay with IGROV1 ovarian was more than 100 µM throughout. For the same compound, the TGI with OVCAR-5 ovarian, in the assay on ACHN renal, in the assay on HL-60(TB) leukemia and in the assay with A549 NSCLC was more than 100 µM throughout.
As to `Cn1cnc2nc(Cl)nc(Cl)c21`, the GI50 in the assay on HCT-15 colon was 2.58 µM; in the assay with UACC-62 melanoma, 1.79 µM; with SW-620 colon, 0.469 µM; in the assay with MALME-3M melanoma, 13.6 µM; in the assay on U251 CNS, 3.27 µM; in the assay on IGROV1 ovarian, 2.47 µM. Also, the GI50 in the assay with OVCAR-5 ovarian is 3.56 µM; with ACHN renal, 1.44 µM; in the assay on HL-60(TB) leukemia it was 3.16 µM; in the assay with A549 NSCLC, 3.68 µM. The TGI in the assay on HCT-15 colon came out at 20.7 µM; in the assay on UACC-62 melanoma, 19.7 µM; with SW-620 colon it was 15.5 µM; in the assay with MALME-3M melanoma, 50.3 µM; in the assay on U251 CNS, 11.7 µM; in the assay on IGROV1 ovarian, 37.7 µM. Also, the TGI is 19.9 µM with OVCAR-5 ovarian, 18.5 µM in the assay with ACHN renal, 8.08 µM in the assay with HL-60(TB) leukemia and more than 100 µM with A549 NSCLC.
Turning to `COc1cc(OC)c(-c2oc3ccccc3c(=O)c2O)c(OC)c1`, the TGI in the assay on HCT-15 colon is more than 100 µM; in the assay with UACC-62 melanoma, more than 100 µM; in the assay on SW-620 colon, more than 100 µM; in the assay with MALME-3M melanoma, 98.3 µM; in the assay with U251 CNS, more than 100 µM; with IGROV1 ovarian it was more than 100 µM. The TGI in the assay on OVCAR-5 ovarian is more than 100 µM; with ACHN renal, more than 100 µM; with HL-60(TB) leukemia, more than 24.1 µM; in the assay with A549 NSCLC, more than 100 µM.
